Experimental data from the supplement of paper PMC10307832.

How the values were obtained:
Assay in all cases: relative viability (nuclei count vs DMSO), 5 days (fraction); higher = more cells survive
IU1-47 + Lapatinib = compound: CC1=CC(=C(N1C2=CC=C(C=C2)Cl)C)C(=O)CN3CCCCC3 [IU1-47] + CS(=O)(=O)CCNCc1ccc(-c2ccc3ncnc(Nc4ccc(OCc5cccc(F)c5)c(Cl)c4)c3c2)o1 [Lapatinib] (partner 2 µM)
Summary of the method: (§1)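 Five library-drug doses in √10 steps were combined with a fixed anchor-drug dose, or a single drug was given alone, by pin tool to lung cancer cell lines in 1536-well plates the day after seeding. Nuclei were stained and counted after 5 days. Relative viability is the nuclei count in treated wells over that in vehicle wells, taken as the median of duplicate plates.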

FG-4592 + OSI-027 = compound: Cc1nc(C(=O)NCC(=O)O)c(O)c2ccc(Oc3ccccc3)cc12 [FG-4592] + COc1cccc2cc(-c3nc([C@H]4CC[C@H](C(=O)O)CC4)n4ncnc(N)c34)[nH]c12 [OSI-027] (partner 0.5 µM)
Summary of the method: as §1

IU1-47 + Foretinib = compound: CC1=CC(=C(N1C2=CC=C(C=C2)Cl)C)C(=O)CN3CCCCC3 [IU1-47] + COc1cc2c(Oc3ccc(NC(=O)C4(C(=O)Nc5ccc(F)cc5)CC4)cc3F)ccnc2cc1OCCCN1CCOCC1 [Foretinib] (partner 0.25 µM)
Summary of the method: as §1

FG-4592 + AZD7762 = compound: Cc1nc(C(=O)NCC(=O)O)c(O)c2ccc(Oc3ccccc3)cc12 [FG-4592] + NC(=O)Nc1cc(-c2cccc(F)c2)sc1C(=O)N[C@H]1CCCNC1 [AZD7762] (partner 0.2 µM)
Summary of the method: as §1

Cell Line	relative viability (IU1-47 + Lapatinib; first compound 0.08 µM)	relative viability (IU1-47 + Lapatinib; first compound 0.253 µM)	relative viability (IU1-47 + Lapatinib; first compound 0.8 µM)	relative viability (IU1-47 + Lapatinib; first compound 2.53 µM)	relative viability (IU1-47 + Lapatinib; first compound 8 µM)	relative viability (FG-4592 + OSI-027; first compound 0.08 µM)	relative viability (FG-4592 + OSI-027; first compound 0.253 µM)	relative viability (FG-4592 + OSI-027; first compound 0.8 µM)	relative viability (FG-4592 + OSI-027; first compound 2.53 µM)	relative viability (FG-4592 + OSI-027; first compound 8 µM)	relative viability (IU1-47 + Foretinib; first compound 0.08 µM)	relative viability (IU1-47 + Foretinib; first compound 0.253 µM)	relative viability (IU1-47 + Foretinib; first compound 0.8 µM)	relative viability (IU1-47 + Foretinib; first compound 2.53 µM)	relative viability (IU1-47 + Foretinib; first compound 8 µM)	relative viability (FG-4592 + AZD7762; first compound 0.08 µM)	relative viability (FG-4592 + AZD7762; first compound 0.253 µM)	relative viability (FG-4592 + AZD7762; first compound 0.8 µM)	relative viability (FG-4592 + AZD7762; first compound 8 µM)	relative viability (FG-4592 + AZD7762; first compound 2.53 µM)
NCI-H1650	0.755	0.717	0.935	0.57	0.351	0.523	0.603	0.839	0.621	0.634	1.05	1.17	1.1	1.4	0.886	–	–	–	–	–
NCI-H1703	1.21	1.2	1.03	1.39	0.96	–	–	–	–	–	0.342	0.315	0.278	0.377	0.361	0.138	0.135	0.12	0.126	–
NCI-H1792	0.923	0.999	0.988	0.956	0.514	0.803	0.69	0.794	0.575	0.735	–	–	–	–	–	0.81	0.637	–	0.654	0.834
NCI-H2009	0.997	1.03	1.07	0.43	1.54	0.591	0.565	0.621	0.476	0.605	1.24	1.25	1.18	1.22	1.23	–	–	–	–	–
NCI-H2023	0.924	0.872	0.805	0.334	0.994	0.402	0.359	0.428	0.356	0.241	0.75	0.722	1	–	0.719	–	–	–	–	–
NCI-H2228	0.974	0.885	1.19	0.833	0.734	0.596	0.402	0.42	0.643	0.376	1.14	1.05	0.975	0.827	0.75	–	–	–	–	–
NCI-H2342	–	–	–	–	–	0.594	0.648	0.631	0.585	0.57	1.24	1.06	0.935	1.07	1.03	0.456	0.459	0.526	0.438	0.403
SK-LU-1	0.857	0.967	0.82	0.822	0.839	0.3	0.177	0.349	0.345	0.239	0.855	0.752	0.879	0.852	0.868	–	–	–	–	–
SK-MES-1	0.5	0.503	0.541	0.465	0.45	0.568	0.585	0.546	0.483	0.453	0.999	1.05	0.838	0.844	0.921	–	–	–	–	–
SW 900	–	–	–	–	–	0.424	0.546	0.493	0.491	0.534	1.24	0.849	0.852	1.18	0.734	–	0.545	–	0.541	0.614
SW 1573	1.08	1.06	0.894	0.966	1.16	0.556	0.537	0.63	0.536	0.561	1.03	0.965	1.11	0.749	1.02	–	–	–	–	–
